Data published in paper PMC12076188 (Cancer Research Communications, 2025).
“Also recorded” adds a separate entry of the source.

Legend:
Sodium channel Nav1.5 = Sodium channel Nav1.5 (Homo sapiens, UniProt Q14524); assay: 41-target safety off-target activity panel
[1] = target: 5-Hydroxytryptamine 5HT2C (Homo sapiens, UniProt P28335); assay: 41-target safety off-target activity panel
Cyclooxygenase COX1 = Cyclooxygenase COX1 (Homo sapiens, UniProt P23219); assay: 41-target safety off-target activity panel
GppNp-bound NRAS WT = target: T1, GppNp-bound NRAS WT (Homo sapiens, UniProt P01111); assay: GppNp-loaded RAS and cRAF interaction assay (HTRF); type: biochemical
T1 construct: His-tagged NRAS WT (aa 1–172); made in house; host or cells: Escherichia coli

[2] = target: 5-Hydroxytryptamine 5HT2A (Homo sapiens, UniProt P28223); assay: 41-target safety off-target activity panel
Cyclooxygenase COX2 = Cyclooxygenase COX2 (Homo sapiens, UniProt P35354); assay: 41-target safety off-target activity panel
[3] = test system: cysteine-containing peptides in NCI-H358 cells; assay: Cysteine proteome analysis; type: cell-based, human; conditions: NCI-H358, 1 μmol/L, 4 hours, n = 5
Protocol: The cysteine proteome analysis was performed by IQ Proteomics. Briefly, collected cell pellets were lysed and treated to label remaining unreacted cysteines. Labeled peptides were enriched by streptavidin agarose and analyzed by nano LC/MS. The adjusted P values were calculated according to the Benjamini–Hochberg method using the JMP statistical analysis software. Log2 fold changes between the glecirasib-treated group and DMSO controls were taken as the abscissa (x-axis), and statistical significance (P value) of the difference between the glecirasib-treated group and DMSO controls was taken as the ordinate (y-axis).

[4] = test system: NCI-H1373 lung cancer xenograft; assay: Cell line–derived xenograft study; type: in vivo, BALB/c-nu mice
From the text: Female BALB/c nude mice (CAnN.Cg-Foxn1^nu/Crl, RRID: IMSR_CRL:194) were obtained from Beijing Vital River Laboratory Animal Technology Co., Ltd. Female BALB/c-nu mice (BALB/cAnSlacNifdc-nu) were obtained from SPF (Beijing) Biotechnology Co., Ltd. Female NCG mice (NOD/ShiLtJGpt-Prkdc^em26Cd52Il2rg^em26Cd22/Gpt) were obtained from GemPharmatech. Subcutaneous tumors were induced by injecting cells in PBS containing 50% BD Matrigel (Corning) in the right flank of female BALB/c-nu mice (NCI-H1373, 5 × 10^6 cells), female BALB/c nude mice (MIA PaCa-2, 1 × 10^7 cells), or female NCG mice (NCI-H358, 5 × 10^6 cells).

Dopamine D2S = Dopamine D2S (Homo sapiens, UniProt P14416); assay: 41-target safety off-target activity panel
[5] = test system: Cardiovascular System (lead-II ECG, blood pressure); assay: In vivo safety pharmacology, GLP; set-up: species or system Beagle Dog; conditions: conscious Beagle dogs, single oral dose 50, 150 and 450 mg/kg
From the text: Supplementary Table S11. In vivo safety pharmacology of glecirasib.
Organ Species/Strain Gender/No. per Group Noteworthy Findings GLP Compliance
System Beagle Dog 3/gender/group conscious and unrestrained Beagle dogs following a single oral dose of Yes

Histamine H2 = Histamine H2 (Homo sapiens, UniProt P25021); assay: 41-target safety off-target activity panel
Vasopressin V1A = Vasopressin V1A (Homo sapiens, UniProt P37288); assay: 41-target safety off-target activity panel
TK LCK = TK LCK (Homo sapiens, UniProt P06239); assay: 41-target safety off-target activity panel
Histamine H1 = Histamine H1 (Homo sapiens, UniProt P35367); assay: 41-target safety off-target activity panel
GDP-bound NRAS WT = target: T2, GDP-bound NRAS WT (Homo sapiens, UniProt P01111); assay: SOS1-mediated guanine nucleotide exchange assay (TR-FRET); type: biochemical
T2 construct: His-tagged NRAS WT (aa 1–172); made in house; host or cells: Escherichia coli

GDP-bound HRAS WT = target: T3, GDP-bound HRAS WT (Homo sapiens, UniProt P01112); assay: as above; type: biochemical
T3 construct: His-tagged HRAS WT (aa 1–166); made in house; host or cells: Escherichia coli

bone marrow = assay: Rat bone marrow micronucleus assay; type: in vivo, Sprague Dawley Rat; conditions: 200, 600 and 2000 mg/kg oral gavage once daily for 3 days; GLP
Protocol: No damage on chromosomal integrity or abnormal chromosome
Rat bone marrow Sprague Dawley Rat 5/gender/group segregation in the bone marrow was noted after SD rats were administered Yes
3 consecutive days. The result of this micronucleus assay was negative. […]

NCI-H358 cells = assay: Cell-cycle analysis by flow cytometry; type: cell-based, human; conditions: NCI-H358, 24 hours, 10 to 1,000 nmol/L
From the text: Cells were then harvested and fixed using FxCycle PI/RNase Staining Solution (Invitrogen). Cell populations at varying stages of the cell cycle were examined using Miltenyi MACSQuant Analyzer and FlowJo software (RRID: SCR_008520) based on the distribution of DNA content.

Chain of 5-Hydroxytryptamine 5HT2A (P28223 whole entry): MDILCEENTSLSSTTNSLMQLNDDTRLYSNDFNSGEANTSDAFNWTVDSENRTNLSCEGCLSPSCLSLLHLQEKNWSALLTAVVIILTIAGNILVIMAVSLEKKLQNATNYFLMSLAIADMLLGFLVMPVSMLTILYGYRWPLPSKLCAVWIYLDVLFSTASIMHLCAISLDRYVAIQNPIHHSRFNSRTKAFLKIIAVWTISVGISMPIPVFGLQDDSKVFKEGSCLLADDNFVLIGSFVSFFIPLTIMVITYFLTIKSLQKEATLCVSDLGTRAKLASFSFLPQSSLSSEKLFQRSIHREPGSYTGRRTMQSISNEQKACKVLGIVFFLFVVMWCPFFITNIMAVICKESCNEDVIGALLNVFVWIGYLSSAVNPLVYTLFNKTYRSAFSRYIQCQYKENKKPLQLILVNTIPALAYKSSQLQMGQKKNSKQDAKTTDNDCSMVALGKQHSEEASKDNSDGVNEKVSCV
Chain of Histamine H1 (P35367 whole entry): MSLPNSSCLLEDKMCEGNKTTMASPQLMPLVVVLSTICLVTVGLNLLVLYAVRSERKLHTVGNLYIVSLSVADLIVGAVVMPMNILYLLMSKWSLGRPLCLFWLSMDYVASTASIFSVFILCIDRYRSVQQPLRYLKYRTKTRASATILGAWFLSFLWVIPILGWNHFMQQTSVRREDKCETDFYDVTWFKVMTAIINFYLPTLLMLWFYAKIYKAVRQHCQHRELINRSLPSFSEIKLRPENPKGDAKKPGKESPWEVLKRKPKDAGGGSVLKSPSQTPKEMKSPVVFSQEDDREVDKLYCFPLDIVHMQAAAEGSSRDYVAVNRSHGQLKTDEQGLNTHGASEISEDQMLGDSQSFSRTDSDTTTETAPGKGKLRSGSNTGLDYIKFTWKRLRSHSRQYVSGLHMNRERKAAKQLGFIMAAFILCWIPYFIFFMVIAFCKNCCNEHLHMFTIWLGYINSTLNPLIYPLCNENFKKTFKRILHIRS
Chain of Vasopressin V1A (P37288 whole entry): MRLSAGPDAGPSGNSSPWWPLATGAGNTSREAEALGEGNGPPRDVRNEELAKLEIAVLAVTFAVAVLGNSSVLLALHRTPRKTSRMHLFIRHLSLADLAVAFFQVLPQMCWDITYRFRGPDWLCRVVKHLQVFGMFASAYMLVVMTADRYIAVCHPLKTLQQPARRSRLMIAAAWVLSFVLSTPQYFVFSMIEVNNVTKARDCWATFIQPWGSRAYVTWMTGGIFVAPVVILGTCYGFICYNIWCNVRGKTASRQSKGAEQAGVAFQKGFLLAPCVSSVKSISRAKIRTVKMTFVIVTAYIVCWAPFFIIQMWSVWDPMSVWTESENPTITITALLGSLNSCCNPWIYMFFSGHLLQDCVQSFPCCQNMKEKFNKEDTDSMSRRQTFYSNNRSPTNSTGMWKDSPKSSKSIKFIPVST
Chain of Dopamine D2S (P14416 1-414 isoform P14416-2): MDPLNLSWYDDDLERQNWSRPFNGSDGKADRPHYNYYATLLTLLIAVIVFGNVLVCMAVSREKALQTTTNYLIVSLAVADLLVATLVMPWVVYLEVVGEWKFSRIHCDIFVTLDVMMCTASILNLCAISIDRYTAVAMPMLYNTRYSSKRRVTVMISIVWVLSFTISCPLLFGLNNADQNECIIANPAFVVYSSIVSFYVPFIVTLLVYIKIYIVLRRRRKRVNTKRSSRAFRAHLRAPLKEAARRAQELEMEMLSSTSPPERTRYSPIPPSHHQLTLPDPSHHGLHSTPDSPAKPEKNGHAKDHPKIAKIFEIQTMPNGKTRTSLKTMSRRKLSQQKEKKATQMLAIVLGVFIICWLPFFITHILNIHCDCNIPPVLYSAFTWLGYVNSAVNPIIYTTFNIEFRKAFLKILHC
Chain of 5-Hydroxytryptamine 5HT2C (P28335 33-458): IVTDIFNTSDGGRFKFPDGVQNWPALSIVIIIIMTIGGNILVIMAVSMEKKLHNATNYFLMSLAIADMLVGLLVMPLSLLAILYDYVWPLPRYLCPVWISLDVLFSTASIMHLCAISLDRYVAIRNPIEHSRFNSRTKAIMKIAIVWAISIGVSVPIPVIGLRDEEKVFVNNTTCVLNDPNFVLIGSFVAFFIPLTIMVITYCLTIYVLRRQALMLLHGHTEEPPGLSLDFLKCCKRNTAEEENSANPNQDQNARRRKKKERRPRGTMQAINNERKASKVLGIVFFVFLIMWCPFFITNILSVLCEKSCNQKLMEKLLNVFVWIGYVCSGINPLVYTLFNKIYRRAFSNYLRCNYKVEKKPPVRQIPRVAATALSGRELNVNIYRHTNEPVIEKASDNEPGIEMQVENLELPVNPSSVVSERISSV
Chain of Histamine H2 (P25021 whole entry): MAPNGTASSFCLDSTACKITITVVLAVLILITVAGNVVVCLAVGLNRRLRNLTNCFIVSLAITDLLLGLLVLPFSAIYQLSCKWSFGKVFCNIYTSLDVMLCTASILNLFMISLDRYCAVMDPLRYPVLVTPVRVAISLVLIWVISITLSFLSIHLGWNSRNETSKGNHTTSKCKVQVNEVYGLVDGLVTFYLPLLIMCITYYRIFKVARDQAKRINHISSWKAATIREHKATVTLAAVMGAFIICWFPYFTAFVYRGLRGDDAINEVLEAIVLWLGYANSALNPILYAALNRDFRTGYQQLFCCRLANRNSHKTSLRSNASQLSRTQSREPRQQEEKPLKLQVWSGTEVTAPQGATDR
T3 sequence (P01112 1-166): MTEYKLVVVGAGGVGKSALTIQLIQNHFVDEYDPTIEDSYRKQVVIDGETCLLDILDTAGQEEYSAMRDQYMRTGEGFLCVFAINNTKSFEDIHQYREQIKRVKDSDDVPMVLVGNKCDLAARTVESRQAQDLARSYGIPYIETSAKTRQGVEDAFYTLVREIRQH
Chain of TK LCK (P06239 whole entry): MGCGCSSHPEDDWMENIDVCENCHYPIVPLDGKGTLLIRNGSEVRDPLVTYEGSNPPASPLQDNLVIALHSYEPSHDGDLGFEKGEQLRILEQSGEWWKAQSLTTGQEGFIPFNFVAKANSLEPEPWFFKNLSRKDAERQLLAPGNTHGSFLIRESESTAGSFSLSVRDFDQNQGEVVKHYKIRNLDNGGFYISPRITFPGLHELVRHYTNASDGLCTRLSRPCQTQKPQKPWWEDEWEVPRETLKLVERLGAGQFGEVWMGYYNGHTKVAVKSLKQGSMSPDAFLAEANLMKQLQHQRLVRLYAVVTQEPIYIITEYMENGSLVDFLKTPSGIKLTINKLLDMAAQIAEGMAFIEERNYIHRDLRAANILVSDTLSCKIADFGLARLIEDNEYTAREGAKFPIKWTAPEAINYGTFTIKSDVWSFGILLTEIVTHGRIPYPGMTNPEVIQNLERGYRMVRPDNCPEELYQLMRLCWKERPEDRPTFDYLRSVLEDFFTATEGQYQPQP
T2 sequence (P01111 1-172): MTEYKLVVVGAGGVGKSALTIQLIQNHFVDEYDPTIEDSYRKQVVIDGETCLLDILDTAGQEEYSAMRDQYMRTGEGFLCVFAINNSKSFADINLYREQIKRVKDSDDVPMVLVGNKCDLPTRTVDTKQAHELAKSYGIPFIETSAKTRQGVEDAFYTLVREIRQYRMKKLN
T1 sequence (P01111 1-172): as above
Chain of Cyclooxygenase COX2 (P35354 18-604): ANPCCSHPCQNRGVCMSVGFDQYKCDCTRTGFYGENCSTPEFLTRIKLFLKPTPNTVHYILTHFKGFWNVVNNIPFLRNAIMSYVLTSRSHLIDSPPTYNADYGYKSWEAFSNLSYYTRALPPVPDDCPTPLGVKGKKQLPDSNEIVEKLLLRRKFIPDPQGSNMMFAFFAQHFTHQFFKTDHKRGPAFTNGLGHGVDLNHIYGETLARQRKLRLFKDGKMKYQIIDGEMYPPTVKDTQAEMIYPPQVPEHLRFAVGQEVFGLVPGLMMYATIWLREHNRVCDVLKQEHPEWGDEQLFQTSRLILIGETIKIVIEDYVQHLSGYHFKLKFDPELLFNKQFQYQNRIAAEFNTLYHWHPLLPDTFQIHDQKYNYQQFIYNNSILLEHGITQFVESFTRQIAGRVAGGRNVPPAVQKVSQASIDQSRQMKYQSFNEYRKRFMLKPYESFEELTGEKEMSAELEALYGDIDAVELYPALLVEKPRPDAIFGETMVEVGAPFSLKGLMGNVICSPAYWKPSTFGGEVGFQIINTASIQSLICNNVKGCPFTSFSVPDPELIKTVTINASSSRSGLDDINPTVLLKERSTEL
Chain of Cyclooxygenase COX1 (P23219 24-599): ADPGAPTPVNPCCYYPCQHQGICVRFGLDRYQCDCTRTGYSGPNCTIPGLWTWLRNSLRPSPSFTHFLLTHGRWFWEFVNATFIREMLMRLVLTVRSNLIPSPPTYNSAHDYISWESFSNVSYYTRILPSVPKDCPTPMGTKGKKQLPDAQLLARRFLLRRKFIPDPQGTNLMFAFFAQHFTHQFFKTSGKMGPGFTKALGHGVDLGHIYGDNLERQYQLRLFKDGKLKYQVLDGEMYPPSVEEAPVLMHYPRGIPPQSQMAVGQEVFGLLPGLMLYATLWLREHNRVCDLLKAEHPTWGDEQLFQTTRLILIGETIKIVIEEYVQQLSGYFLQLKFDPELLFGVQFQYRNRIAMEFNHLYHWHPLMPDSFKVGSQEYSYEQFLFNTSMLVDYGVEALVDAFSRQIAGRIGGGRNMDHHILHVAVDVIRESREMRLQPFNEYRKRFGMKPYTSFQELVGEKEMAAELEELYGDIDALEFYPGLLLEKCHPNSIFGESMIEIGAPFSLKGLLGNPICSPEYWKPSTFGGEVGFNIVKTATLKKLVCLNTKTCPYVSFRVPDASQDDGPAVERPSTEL

`C=CC(=O)N1CCN(c2c(C#N)c(=O)n(-c3c(C)ccnc3C(C)C)c3nc(-c4c(N)c(F)c(F)c(F)c4F)c(Cl)cc23)CC1` [Glecirasib] showed an inhibition at 10 µM (Sodium channel Nav1.5) of 1.01%, an inhibition at 10 µM [1] of 43.2% and a Mean % activation ([1]; Glecirasib 10 μM) of 19.92%. For the same molecule, the inhibition at 10 µM (Cyclooxygenase COX1) was 32.3%, the IC50 (GppNp-bound NRAS WT) was over 10 µM and the inhibition at 10 µM [2] was 13.6%. For the same molecule, the Mean % activation ([2]; Glecirasib 10 μM) was -0.04%, the inhibition at 10 µM (Cyclooxygenase COX2) was 14.7% and the “covalently bound targets among 9,378 unique cysteine-containing peptides” value [3] was “the Cys12 peptide in KRAS G12C is the only covalently bound target”. The tumor response ([4]; 10 mg/kg daily dose, orally) was “tumor regression”, the TGI ([4]; NCI-H1373 lung cancer xenograft model, single agents or combination, orally once a day) was 67% and the “tumor growth, dose dependence” value ([4]; once a day orally) was “dose-dependently inhibited the growth”. For the same molecule, the inhibition at 10 µM (Dopamine D2S) was 0.22%, the Mean % activation (Dopamine D2S; Glecirasib 10 μM) was -0.38% and the “Noteworthy Findings, cardiovascular” value [5] was “No effects on the lead-II ECG; also recorded: no risk of QT interval prolongation”. It also gave an inhibition at 10 µM (Histamine H2) of 1.71%, a Mean % activation (Histamine H2; Glecirasib 10 μM) of -0.43% and an inhibition at 10 µM (Vasopressin V1A) of 9.46%. It also gave a Mean % activation (Vasopressin V1A; Glecirasib 10 μM) of 2.09%, an inhibition at 10 µM (TK LCK) of 0.93% and an inhibition at 10 µM (Histamine H1) of 16.2%. It also gave a Mean % activation (Histamine H1; Glecirasib 10 μM) of 1.79%, an IC50 (GDP-bound NRAS WT) of over 10 µM and an IC50 (GDP-bound HRAS WT) of over 10 µM. The micronucleus assay result (bone marrow) was “negative” and the cell-cycle effect (NCI-H358 cells) was “induced cell-cycle arrest at the G0/G1 phase in a dose-dependent manner”.
